Experimental data taken from BindingDB's records for doi:10.1016/j.bmcl.2005.08.100 (the State University of New Jersey, 2022).

Columns and labels:
[1] = target: T1, Replicase polyprotein 1ab (Severe acute respiratory syndrome coronavirus 2, UniProt P0DTD1); assay: Inhibition of SARS-CoV-2 papain-like protease
[2] = target: T1, Replicase polyprotein 1ab; assay: Inhibition of SARS-CoV-2 papain-like protease using fluorescent substrate preincubated for 1 hr by fluorescence based assay
[3] = target: T1, Replicase polyprotein 1ab; assay: Inhibition of SARS-CoV-2 papain-like protease assessed as viral protease-mediated deubiquitination using ubiquitinated substrate incubated for 16 to 18 hrs by fluorescence based assay
[4] = target: T1, Replicase polyprotein 1ab; assay: Inhibition of SARS-CoV-2 papain-like protease-mediated de-ISGylation
[5] = target: T1, Replicase polyprotein 1ab; assay: Inhibition of TAP-tagged SARS-CoV-2 papain-like protease nsp23
[6] = target: T1, Replicase polyprotein 1ab; assay: Inhibition of TAP-tagged SARS-CoV-2 papain-like protease nsp123
[7] = target: T1, Replicase polyprotein 1ab; assay: Binding affinity to CM5 chip immobilized full-length wild-type SARS-CoV-2 papain-like protease (1564 to 1878 residues) expressed in Escherichia coli BL21 (DE3) assessed as dissociation constant incubated for 90 secs by SPR analysis
[8] = target: T1, Replicase polyprotein 1ab; assay: Inhibition of N-terminal 3xFlag-His6-tagged SARS-CoV-2 papain-like protease nsp3 (1564 to 1878 residues) expressed in baculovirus infected Sf9 insect cells using Pro3 as substrate by fluorescence based assay
[9] = target: T1, Replicase polyprotein 1ab; assay: Inhibition of C-terminal His-tagged SARS-CoV-2 BetaCoV/Wuhan/WIV04/2019 papain-like protease (1564 to 1876 residues) expressed in Escherichia coli BL21 (DE3) using Dabcyl-FTLRGG/APTKV as substrate preincubated for 1 hr followed by substrate addition measured after 3 hrs by FRET assay
[10] = target: T1, Replicase polyprotein 1ab; assay: Inhibition of recombinant SARS-CoV-2 papain-like protease using Z-Arg-Leu-Arg-Gly-Gly-AMC as substrate by enzymatic assay
[11] = target: T1, Replicase polyprotein 1ab; assay: Inhibition of recombinant SARS-CoV-2 main protease using ATLQAIAS as substrate preincubated for 15 mins by enzymatic assay
[12] = target: T1, Replicase polyprotein 1ab; assay: Inhibition of SARS-CoV-2 papain-like protease expressed in Escherichia coli BL21 (DE3) using Z-LRGG-AMC/Z-RLRGG-AMC as substrate preincubated for 30 mins by enzymatic assay
[13] = target: T1, Replicase polyprotein 1ab; assay: Inhibition of SARS-CoV-2 papain-like protease using ISG15-Rh as substrate
[14] = target: T1, Replicase polyprotein 1ab; assay: Binding affinity to biotin-tagged SARS-CoV-2 papain-like protease expressed in Escherichia coli BL21 (DE3) assessed as dissociation constant incubated for 3 mins by BLI assay
[15] = target: T1, Replicase polyprotein 1ab; assay: Inhibition of 6xHis-tagged SARS-CoV-2 papain-like protease expressed in Escherichia coli BL21 (DE3) using ISG15-FITC as substrate incubated for 30 mins by fluorescence polarization assay
[16] = target: T1, Replicase polyprotein 1ab; assay: Inhibition of SARS-CoV-2 papain-like protease using RLRGG-AMC as substrate

SMILES: O=C1c2ccccc2C(=O)c2oc(-c3ccccc3)nc21
- IC50 [1]: 0.56 µM

SMILES: O=C1c2c(O)cccc2[C@@H]([C@@H]2O[C@H](CO)[C@@H](O)[C@H](O)[C@H]2O)c2cc(CO)cc(O)c21
- IC50 [2]: 16.1 µM
- IC50 [3]: 17.5 µM

SMILES: Nc1nc2nc[nH]c2c(=S)[nH]1
- IC50 [4]: 0.1 µM
- IC50 [5]: 1 µM
- IC50 [6]: 0.5 µM

SMILES: C[C@H](c1cccc2ccccc12)N1CCC(C(=O)NCc2cc(F)cc(NC(=O)N3CCN(C)CC3)c2)CC1
- Kd [7]: 2.6 µM

SMILES: O=C1c2ccccc2-c2nc3nnnn3nc21
- IC50 [8]: 0.26 µM

SMILES: C[C@H](c1ccccc1Cl)N(C)Cc1cc(O)ccc1Cl
- IC50 [9]: 6.67 µM

SMILES: CN(Cc1cn(C2C3=C(OC2(C)C)c2ccccc2C(=O)C3=O)nn1)C1=CC(=O)c2ccccc2C1=O (stereo unspecified)
- IC50 [10]: 2.2 µM

SMILES: CN(Cc1cn(C2C3=C(OC2(C)C)c2ccccc2C(=O)C3=O)nn1)C1=C(Br)C(=O)c2ccccc2C1=O (stereo unspecified)
- IC50 [10]: 3.1 µM
- IC50 [11]: 66 µM

SMILES: C[C@@H](NC(=O)c1ccccc1CCC(=O)NNC(=O)/C(C#N)=C/C1CC1)c1cccc2ccccc12
- IC50 [12]: > 200 µM

SMILES: OCCc1ccc(O)cc1 [4-(2-Hydroxy-ethyl)-phenol]
- IC50 [13]: 6.68 µM

SMILES: O=Cc1ccc(O)cc1 [4-hydroxybenzaldehyde]
- IC50 [13]: 3.99 µM

SMILES: Cc1ccc(NC2=CC(=O)c3sc(C)nc3C2=O)cc1 [5-(N-(4-Methylphenyl)amino)-2-methyl-4,7-dioxobenzothiazole]
- IC50 [8]: 0.39 µM

SMILES: Oc1c(Cl)cc(Cl)c2cccnc12 [AS-229]
- Kd [14]: 4.6 µM
- IC50 [15]: 7.24 µM

SMILES: O=C1c2c(O)cccc2[C@H]([C@@H]2O[C@H](CO)[C@@H](O)[C@H](O)[C@H]2O)c2cc(CO)cc(O)c21 [CHEBI:2991]
- IC50 [2]: 13.2 µM
- IC50 [3]: 15.7 µM

SMILES: Nc1ccc2cc3ccc(N)cc3nc2c1 [acridine-3,6-diamine]
- IC50 [16]: 1.66 µM
